Entries after “also recorded” stand apart in the source; their conditions may differ.

Series [1] concerns esterase. Put plainly: Esterase mediated conversion of treprostinil compounds to treprostinil. The series is classed as in vitro ADME. The settings on record: 37° C., up to 1 hr. Here is the method: A set of studies was conducted to determine the conversion kinetics to treprostinil of linear treprostinil compounds versus various branched treprostinil compounds. 0.4 mM of linear C8-TR or branched treprostinil compounds 2-dimethyl-1-propanyl-TR, 3,3-dimethyl-1-butanyl-TR, 2-ethyl-1-butanyl-TR, 5-nonanyl-TR, or 3-pentanyl-TR (see below for structures) were incubated with 0.2 U esterase at 37° C. for 1 hour, and the conversion (% of total) was calculated at 0.25, 0.5, 0.75, or 1 hour incubation time. • C8-TR (i.e., the compound of Formula (A) wherein R2=
The conversion is relative to the C8-TR compound and conversion was measured at 1 hr. post esterase incubation, • C8-TR (i.e., the compound of Formula (A) wherein R2=
Conversion was measured at 1 hr. post esterase incubation. • 4C7-TR (i.e., the compound of Formula (A) wherein R2=

Series [2] concerns the target T1, EP2 prostanoid receptor (Homo sapiens, UniProt P43116).
T1 construct: host or cells: CHO-K1 cells, transiently co-transfected with pGloSensor-22F cAMP plasmid and pGEM-3Zf(+)
As to the kind of experiment: GloSensor cAMP assay in CHO-K1 cells co-transfected with the EP2 receptor. The series is classed as cell-based. From the text: cAMP is a second messenger involved in signal transduction of G-protein coupled receptors (GPCRs) acting through Ga-s and Ga-i proteins. Because the treprostinil receptor is a GPCR, the assay provides an indication of whether the respective prostacyclin compound (or metabolite thereof) binds its receptor and activates the GPCR cell signaling cascade. The GloSensorTM assay harnesses a genetically modified form of firefly luciferase into which a cAMP-binding protein moiety has been inserted. Upon binding of cAMP, a conformational change is induced leading to increased light output. The EP2 prostanoid receptor was co-transfected with the GloSensorTM plasmid (Promega) into CHG-K1 cells as follows. CHO-K1 cells were harvested when the monoloayer was at 50-90% confluence. First, cells were washed with 5 mL PBS. […] The media was aspirated, and the cell pellet was resuspended in 10 mL of growth media. Cell number was determined using a hemacytometer. Each well of a culture treated 96 […] bottom plate (Costar, Cat #: 3917) was seeded with 1×10^4 cells per 100 μL antibiotic-free growth media. […] For small scale transfections of up to 20 wells, the pGLoSensor-22F cAMP plasmid (Promega, Cat #: E2301) (2 μg): (EP2) (10 ng) (Origene, Cat #: SC126558) : pGEM-3Zf(+) (10 ng) (Promega, Cat #: P2271) ratio was diluted to a final concentration of 12.6 ng/μL (total plasmid) in Opti-MEM I reduced-serum medium (Life Technologies, Cat #: 1985062). Next, 6 μL of FuGENE HD transfection reagent (Promega, Cat #: E2311) was added to 160 μL of diluted plasmid and mixed carefully by gentle pipetting. The complex was incubated at room temperature for 0 to 10 minutes, and then 8 μL of the complex was added per well of a 96 well white assay plate (Costar, Cat #: 3917) and gently mixed without disturbing the cell monolayer. […] Following incubation, cells were treated and analyzed. For larger scale transfections, the aforementioned steps were scaled up accordingly, and cells were frozen following the last incubation. In order to prepare frozen transfected CHO-K1 cells, the media was aspirated from culture flasks and cells were rinsed with 5 mL PBS. […] Cell number was determined using a hemacytometer. The media was aspirated, and the cell pellet was resuspended in freezing media (Millipore, cat #: S-002-5F) at 2.5×10^6 cells/vial. Transfected cells were incubated overnight at -80° C. before transfer to liquid nitrogen for long term storage. […] In preparation for cAMP measurement, the cells were equilibrated with the GloSensor cAMP reagent prior to treatment. For equilibration, the medium was carefully removed from the individual well. Next, 100 μL of equilibration medium (6% v/v of Glosensor Reagent stock solution (Promega, Cat #: E291), 10% FBS (Hyclone, Cat #: SH30071.03) and 88% CO2 independent medium (Life Technologies, Cat #: 18045088)) was added per well of the 96-well plate, and added to the side of each well. The plate was then incubated for 2 hours at room temperature. A first pre-read measurement was taken using a microplate reader (MicroLumat Plus). Plates were incubated for an additional 10 minutes at room temperature, followed by a second pre-read measurement. […] Following treatment, each plate was read every 5 minutes for the duration of the assay using a microplate reader (MicroLumat Plus). In order to determine the fold change in cAMP relative to the control, the transfection efficiency was first determined by dividing the second pre-read measurement by the average of the corresponding pre-read measurements. Next, the normalized relative light units (RLUs) of the samples were determined by dividing the plate read measurement by the transfection efficiency. The fold change in cAMP relative to the control was then determined by dividing the normalized RLU of the samples by the normalized RLU of the control. […] Results from the three highest concentrations are provided at FIG. 3A (10 μM), FIG. 3B (1 μM) and FIG. 3C (0.1 μM). […]
On the technique in general: cAMP levels reflect the balance of adenylyl cyclase and phosphodiesterase activity.

Series [3] concerns CHO-K1 cells. As to the kind of experiment: CHO-K1 cell proliferation assay. The settings on record: unformulated alkyl esters, 48 hour incubation; for Effect on cell proliferation: concentration with detectable inhibition: 0.195 μM-25 μM. Here is the method:
CHG-K1 cells were harvested when the cell monolayer was 50-90% confluent (use passage 4-11). Media was aspirated out of the flask, and cells were rinsed with 2 mL of F12 media. Next, 1 mL of pre-warmed (37° C.) 0.25%o trypsin-EDTA (Life Technologies, Cat#: 25300054) was added, and cells were dislodged from the flask by tapping it on the side. Complete growth media (F12 (Life Technologies, Cat #: 31765092) +10%FBS (Hyclone, Cat #: SH30071.03)+1× Pen-Strep (Life Technologies, cat #15140-122) was then added at a volume of 10 mL. Cells were eentrifuged at 250×g for 5 minutes at room temperature, and the media was aspirated. The cell pellet was resuspended in 10 ml. complete growth media. Cell number was determined using a hemacytometer. Ceils were then seeded at 2000 cells per well of a 96-well plate in 100 μL of complete growth media. The plate was incubated overnight at 37° C. and 5% CO2 in a water-jacketed incubator.
The next day, 80 μL of fresh complete media was added to each well, and CHO—K1 cells were challenged with treprostinil compound and composition treatments. The working solutions were prepared at 10× concentration, and following 2 fold serial dilutions, 20 μL aliquots were added per well to arrive at a final 1× concentration. Following a 48 hour incubation at 37° C. and 5% CO2 in a water-jacketed incubator, the inhibitory effect on cell proliferation was determined. Plates were analyzed using 20 μL of Presto Blue reagent (Life Technologies, cat #: A13262) per well. The reagent was mixed, and plates were incubated for 1 hour at 37° C. and 5% CO2 in a water-jacketed incubator. Plates were read using either a CytoFluor Series 4000 (PerSeptive BioSystems) or Synergy Neo microplate reader (BioTek) with emission λ: 590 nm and excitation λ: 560 nm.
Following a 48 hour incubation period, the inhibitory effect of the treprostinil derivative compositions on cell proliferation was determined.
CHO—K1 cells were challenged with treprostinil alkyl esters, i.e., TR compounds of Formula (A), having the following R2 groups: • C2, C3, C4, C5, C6, C8, C10 or C12 straight chain alkyl, at dosages ranging from 0.098 μM to 25 μM, Following a 48 hour incubation period, the inhibitory effect on cell proliferation was determined.
Following a 72 hour incubation period, the inhibitory effect on cell proliferation was determined. Following a 48 hour incubation period, the inhibitory effect on cell proliferation was determined.
Similarly, CHG-K1 cells were challenged with the treprostinil compositions T612 (R2═C2), T613 (R2═C8) at concentrations ranging from 1.41 μM to 180 μM.

Series [4] deals with NR8383 cells. Put plainly: NR8383 cell proliferation assay. The settings on record: unformulated alkyl esters, 72 hour incubation; for Effect on cell proliferation: 0.195 μM-25 μM. The series is classed as cell-based, rat. As to the method:
Rat alveolar NR8383 cells were harvested when the monolayer was 50-90% confluent (use passage 5-11). Because the NR8383 cells include both adherent and non-adherent cells, media was transferred to a 50 mL Falcon tube. To obtain the cells remaining in the flask, 2 mL of plain media was added, and the remaining cells were scraped out of the 75 cm^2 flask with a cell scraper and added to the 50 mL tube. […] SH30071.03) […] Technologies, cat #: 15410-122)). Cell number was determined using a hemacytometer. […] Measurements and calculations were made as described above for the CHO-K1 cells.

Series [5] is described as follows: Particle size characterization of treprostinil compositions (QELS). The settings on record: particles of compositions comprising the alkyl ester (FIG. 2). Format: physicochemical.
Procedure: All particle size measurements were performed using a Wyatt Technology Mobius™ Zeta Potential/ Particle Sizing Instrument in Quasi-elastic light scattering (QELS) mode. Composition aiiquots were diluted 10-fold in pre-filtered (0.02 μm pore filter) ultrapure of deionized H2O. Light scattering data was collected and converted into particle size and size distribution using Dynamics® v. […] Reported average particle size diameter is based on the cumulants model, which mathematically fits particle diffusion constants (determined by the raw scattering intensities of particles in a suspension) to obtain the particle size mean and a distribution of particle sizes around the mean diameter.
Particle uniformity was determined using the software-calculated polydispersity (% PD). Polydispersity is defined as the standard deviation of the particle size distribution from the mean particle size value. % PD normalizes the polydispersity to the mean diameter by dividing by the mean size and multiplylng by 100. These parameters indicate whether a particle suspension has one or more size populations of particles (monomodal versus multimodal). […]
Dynamics® polydispersity parameter represents a monodisperse population of particles if % PD≦15. A calculated % PD≧57% represents a polydisperse population of particles.

T1 sequence (P43116 whole entry): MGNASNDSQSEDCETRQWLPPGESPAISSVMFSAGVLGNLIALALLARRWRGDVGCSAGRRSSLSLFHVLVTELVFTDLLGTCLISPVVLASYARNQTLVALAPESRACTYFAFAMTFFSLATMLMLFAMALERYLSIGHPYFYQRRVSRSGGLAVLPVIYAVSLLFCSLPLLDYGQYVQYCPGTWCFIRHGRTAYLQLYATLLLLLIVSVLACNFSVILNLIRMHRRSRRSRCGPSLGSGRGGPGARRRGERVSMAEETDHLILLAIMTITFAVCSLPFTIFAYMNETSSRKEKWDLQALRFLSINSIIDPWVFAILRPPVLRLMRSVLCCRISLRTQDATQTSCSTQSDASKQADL

`CCCCC[C@H](O)CC[C@@H]1[C@H]2Cc3cccc(OCC(=O)OC(CCC)CCC)c3C[C@H]2C[C@H]1O` [4C7-TR]: the “esterase mediated conversion rate compared with other compounds” value in series [1] was “slower conversion rate than the linear compound C8-TR”.

In the case of `CCCCCC(O)CCC1C(O)CC2Cc3c(cccc3OCC(=O)OC(CCC)CCCC)CC21` (stereo not shown) [4C8-TR], the “esterase mediated conversion rate compared with other compounds” value in series [1] was “slower conversion rate than the linear compound C8-TR; also recorded: slower conversion rate than the symmetrical compounds”.

As for `CCCCC[C@H](O)CC[C@@H]1[C@H]2Cc3cccc(OCC(=O)OC(CCCC)CCCC)c3C[C@H]2C[C@H]1O` [5C9-TR, 5-nonanyl treprostinil], the “change of potency with incubation time / release profile” value in series [2] (dose response curves at 0.5 to 8 hr incubation) is recorded as “increases with incubation time; also recorded: delayed release profile”. In series [2] (unformulated compounds, 10 μM and 5 μM, FIG. 21), the “ranking of activity of the treprostinil compounds” value is listed as “C12-TR>C14-TR>5-nonanyl-TR>C16-TR”. Besides, the results for the “esterase mediated conversion rate compared with other compounds” value in series [1] and in series [1] (listed as 5-nonanyl-TR) were “slower conversion rate than the linear compound C8-TR” and “slower conversion rate than linear C8-TR”, respectively.

Turning to `CCCCCC[C@@H](C)OC(=O)COc1cccc2c1C[C@H]1C[C@@H](O)[C@H](CC[C@@H](O)CCCCC)[C@H]1C2` [(R)-2C8-TR], the “esterase mediated conversion rate compared with other compounds” value in series [1] is “no significant difference between the conversion rates of R and S isomers”.

In the case of `CCCCCC[C@H](C)OC(=O)COc1cccc2c1C[C@H]1C[C@@H](O)[C@H](CC[C@@H](O)CCCCC)[C@H]1C2` [(S)-2C8-TR], the “esterase mediated conversion rate compared with other compounds” value in series [1] was “no significant difference between the conversion rates of R and S isomers”.

Regarding `CCCCC[C@H](O)CC[C@@H]1[C@H]2Cc3cccc(OCC(=O)OCC)c3C[C@H]2C[C@H]1O` [C2-TR, treprostinil ethyl ester], in series [3], the “Effect on cell proliferation: concentration with detectable inhibition” value (“Effect … with detectable inhibition” below) is “No detectable cell inhibition”. Moreover, in series [4], the “Effect on cell proliferation” value is recorded as “No detectable cell inhibition”.

In the case of `CCCCC[C@H](O)CC[C@@H]1[C@H]2Cc3cccc(OCC(=O)OCCC)c3C[C@H]2C[C@H]1O` [C3-TR], in series [3], the “Effect … with detectable inhibition” value is reported as “No detectable cell inhibition”. Besides, the “Effect on cell proliferation” value in series [4] is listed as “No detectable cell inhibition”.

As for `CCCCC[C@H](O)CC[C@@H]1[C@H]2Cc3cccc(OCC(=O)OCCCC)c3C[C@H]2C[C@H]1O` [C4-TR], the “Effect … with detectable inhibition” value in series [3] is on record as “No detectable cell inhibition”. For the same compound, the “Effect on cell proliferation” value in series [4] was “No detectable cell inhibition”.

Regarding `CCCCCCOC(=O)COc1cccc2c1C[C@H]1C[C@@H](O)[C@H](CC[C@@H](O)CCCCC)[C@H]1C2` [C6-TR], the “Effect … with detectable inhibition” value in series [3] is listed as “No detectable cell inhibition”. In series [4], the “Effect on cell proliferation” value is “No detectable cell inhibition”.

As to `CCCCCCCCOC(=O)COc1cccc2c1C[C@H]1C[C@@H](O)[C@H](CC[C@@H](O)CCCCC)[C@H]1C2` [C8-TR, treprostinil octyl ester], in series [3], the “Effect … with detectable inhibition” value came to 25 µM and the “inhibition of cell proliferation at the highest concentration” value was “showed inhibition of cell proliferation”. The “inhibition of cell proliferation at the highest concentration” value in series [4] is “showed some inhibition of cell proliferation”.

On to treprostinil decyl ester [C10-TR], for which the “duration of cAMP levels” value in series [2] (5 μM, FIG. 4 and FIG. 5) is listed as “sustained significantly longer than free treprostinil”. In series [2] (10 μM, FIG. 3A), the “cAMP levels compared with free treprostinil” value is on record as “equivalent to free treprostinil” and the “time for which cAMP level was sustained” value is reported as “at least 6 hours”. Moreover, the “cAMP response compared with free treprostinil” value in series [2] (compositions, 5 μM, FIG. 4) was “greater than or equivalent to the response induced by free treprostinil”. For the same compound, the “cAMP response levels of unformulated compounds” value in series [2] (unformulated alkyl esters, 5 μM, FIG. 5) is “equivalent to free treprostinil”. Besides, the “polydispersity (% PD)” value in series [5] is listed as “around 15 % PD”.

These data come from patent US20170049739A1, “PROSTACYCLIN COMPOUNDS, COMPOSITIONS AND METHODS OF USE THEREOF” (INSMED INCORPORATED, priority 2013, published 2017).
